Measured values taken from patent US20180015051A1, “MODULATORS OF ALPHA-DICARBONYL DETOXIFICATION AND THEIR USE FOR THE TREATMENT OF DIABETIC PATHOLOGIES” (Buck Institute for Research on Aging, priority 2016, published 2018).

Experiments:
[1] = tested on: 50B11 cells (immortalized rat DRG neuronal cells); assay: MGO-mediated neurotoxicity in differentiated 50B11 cells (DIC imaging, neurite length, soma size); type: cell-based; conditions: 20-24 h
Method: 50B11 cells (immortalized rat DRG neuronal cells) maintain self-replication capability over many cell divisions (>300). The results described in this article were obtained with cells between 100 and 400 passages. Cells were grown in antibiotic treated complete Neurobasal media containing glucose, L-glutamine, Fetal Bovine Serum (FBS), B-27 supplement, and nerve growth factor (NGF) (100 ng/ml). Differentiation and axonal elongation was induced by addition of forskolin (75 pM) into the culture medium. […] Methylglyoxal was administered at a final concentration of 250 pM for 20-24 h post-differentiation of the cells. Podocarpic acid was added at a final concentration of 250 pM and incubated for the same period with or without methylglyoxal. Ethanol was used as a vehicle control. […] Neurite outgrowth was quantified by manually measuring the length of a projection from the edge of the cell body; a neurite was defined as a thin projection longer than the diameter of the associated cell body. Area of soma or cell body was measured excluding the neurite projections. Images were processed using Image Analyst MKII software (www.imageanalyst.net/) and quantification was done using Image J software (//imagei.nih.gov/ij/). 75-100 cells selected randomly were considered for quantification under each experimental condition.

TRPA1 (RAT) = target: T1, TRPA1 (RAT) (Rattus norvegicus, UniProt Q6RI86); assay: Calcium imaging of HEK293T cells (Rhod-3 AM), rat TRPA1; type: cell-based; conditions: HEK293T transfected with rat TRPA1 and GFP; 100 pM or 1 mM MGO
T1 construct: expressed in transfected cells; host or cells: HEK293T
Method: (§1) Appropriate HEK293T-derived cells were seeded on collagen-coated glass bottom culture dishes (MatTek Corporation). Cells were loaded with 10 pM of Rhod-3 AM (Life Technology) for 30 min at 37° C. After 30 min they were washed twice with standard Tyrode's solution (135 mM NaCl, 4 mM KCl, 10 mM glucose, 10 mM HEPES, 2 mM CaCl2, and 1 mM MgCl2 at pH=7.4) at room temperature. Calcium imaging was performed on an Olympus BX51WI Axiovert microscope under a 60× objective. Fluorescent images were documented upon sequential excitation with 555 nm followed by 484 nm with a Roper CoolSnap CCD camera. After establishing a baseline 555/484 ratio, methylglyoxal or other agonists were diluted with Tyrode's solution (100 pM or 1 mM final concentration) and were perfused into cells. Images were processed with the MetaFlour (Olympus) software.

GLOD-4/GLO1 = assay: Glod-4p::gfp expression assay; type: in vivo, Caenorhabditis elegans; conditions: EV, skn-1, or trpa-1 RNAi; MGO (7 mM) vs water
Method: Transgenic adult animals carrying glod-4p::gfp were assayed. Fluorescent intensity was calculated by background subtraction and quantified for the same region of interest across individual animals. All quantification was done using Image J™ software (//imagei.nih.gov/ii/).

C. elegans = assay: Swim-bend assay (body bends in liquid media); type: in vivo, Caenorhabditis elegans; conditions: N2 animals; 7 mM MGO vs water
TRPA1 (worm) = target: T2, TRPA1 (worm) (Caenorhabditis elegans, UniProt Q18297); assay: Calcium imaging of HEK293T cells (Rhod-3 AM), worm TRPA1; type: cell-based, C. elegans; conditions: HEK293T transfected with worm TRPA1 and GFP; 100 pM or 1 mM MGO
T2 construct: expressed in transfected cells; host or cells: HEK293T
T2 sequence (Q18297 1-1211): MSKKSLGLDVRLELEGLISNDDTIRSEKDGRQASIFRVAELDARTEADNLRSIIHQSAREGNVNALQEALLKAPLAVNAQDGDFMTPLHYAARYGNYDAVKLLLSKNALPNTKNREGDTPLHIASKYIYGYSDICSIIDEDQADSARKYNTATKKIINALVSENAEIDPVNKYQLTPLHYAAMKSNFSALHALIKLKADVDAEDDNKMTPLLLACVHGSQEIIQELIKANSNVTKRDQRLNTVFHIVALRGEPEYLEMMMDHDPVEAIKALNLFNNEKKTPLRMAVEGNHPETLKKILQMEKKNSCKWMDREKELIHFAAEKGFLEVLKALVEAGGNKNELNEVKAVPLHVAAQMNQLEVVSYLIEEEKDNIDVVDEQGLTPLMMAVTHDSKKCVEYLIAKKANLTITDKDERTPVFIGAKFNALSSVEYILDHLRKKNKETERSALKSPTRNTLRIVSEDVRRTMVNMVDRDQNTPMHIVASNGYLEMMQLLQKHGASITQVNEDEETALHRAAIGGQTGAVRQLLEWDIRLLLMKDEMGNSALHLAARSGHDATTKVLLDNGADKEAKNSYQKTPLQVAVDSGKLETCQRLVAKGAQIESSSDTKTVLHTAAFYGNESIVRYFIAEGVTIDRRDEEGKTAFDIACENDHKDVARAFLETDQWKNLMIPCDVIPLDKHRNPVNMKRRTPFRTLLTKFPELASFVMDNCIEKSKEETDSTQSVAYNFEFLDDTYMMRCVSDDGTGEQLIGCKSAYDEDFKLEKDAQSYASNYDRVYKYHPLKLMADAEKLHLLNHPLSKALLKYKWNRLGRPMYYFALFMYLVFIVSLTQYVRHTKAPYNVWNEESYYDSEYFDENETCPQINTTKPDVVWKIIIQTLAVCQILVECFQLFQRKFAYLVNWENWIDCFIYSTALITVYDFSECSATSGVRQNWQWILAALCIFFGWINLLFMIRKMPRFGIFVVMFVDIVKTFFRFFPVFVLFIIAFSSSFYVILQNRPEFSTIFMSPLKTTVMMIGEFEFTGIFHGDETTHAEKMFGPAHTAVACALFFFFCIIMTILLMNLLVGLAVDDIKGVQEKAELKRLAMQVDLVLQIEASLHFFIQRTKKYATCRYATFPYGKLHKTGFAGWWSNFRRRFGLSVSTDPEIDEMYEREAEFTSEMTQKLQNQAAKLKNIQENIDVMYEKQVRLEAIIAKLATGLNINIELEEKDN
Method: as §1

T1 sequence (Q6RI86 whole entry): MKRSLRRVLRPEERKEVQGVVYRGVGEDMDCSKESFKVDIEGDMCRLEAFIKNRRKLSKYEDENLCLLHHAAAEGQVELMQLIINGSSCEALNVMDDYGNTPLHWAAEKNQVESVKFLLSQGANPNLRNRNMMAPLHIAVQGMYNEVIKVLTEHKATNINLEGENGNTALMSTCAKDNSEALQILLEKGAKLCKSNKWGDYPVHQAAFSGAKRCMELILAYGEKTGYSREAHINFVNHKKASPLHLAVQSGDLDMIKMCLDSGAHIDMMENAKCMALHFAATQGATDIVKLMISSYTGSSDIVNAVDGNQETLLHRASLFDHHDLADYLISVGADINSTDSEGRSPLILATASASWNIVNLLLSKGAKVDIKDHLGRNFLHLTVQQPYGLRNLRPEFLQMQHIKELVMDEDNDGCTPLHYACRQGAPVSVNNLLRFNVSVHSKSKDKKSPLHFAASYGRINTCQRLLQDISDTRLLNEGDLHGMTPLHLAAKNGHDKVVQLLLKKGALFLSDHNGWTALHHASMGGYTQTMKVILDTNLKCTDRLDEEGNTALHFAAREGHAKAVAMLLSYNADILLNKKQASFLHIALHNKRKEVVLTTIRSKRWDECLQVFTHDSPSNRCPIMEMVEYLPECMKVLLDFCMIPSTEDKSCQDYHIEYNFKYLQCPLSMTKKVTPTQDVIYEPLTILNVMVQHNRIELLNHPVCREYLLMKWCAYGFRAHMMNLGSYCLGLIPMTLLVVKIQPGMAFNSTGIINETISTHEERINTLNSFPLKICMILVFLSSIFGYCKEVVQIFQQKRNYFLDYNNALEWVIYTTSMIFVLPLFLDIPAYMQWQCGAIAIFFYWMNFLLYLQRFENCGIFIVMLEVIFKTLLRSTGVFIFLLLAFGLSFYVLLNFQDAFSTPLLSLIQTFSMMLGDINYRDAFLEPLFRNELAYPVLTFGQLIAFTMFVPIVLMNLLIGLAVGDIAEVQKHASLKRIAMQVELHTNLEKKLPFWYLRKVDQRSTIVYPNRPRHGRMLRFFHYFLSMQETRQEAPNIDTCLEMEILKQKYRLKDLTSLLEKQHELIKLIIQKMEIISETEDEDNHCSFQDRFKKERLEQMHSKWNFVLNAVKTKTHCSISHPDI

| Structure (SMILES) | MGO-induced neurotoxic phenotypes (cell body size, neurite outgrowth) ([1]; PA and MGO each at 250 pM) | Ca2+ flux (Rhod-3 AM fluorescence ratio 555/484 nm) (TRPA1 (RAT)) | glod-4p::gfp reporter expression (GFP intensity) (GLOD-4/GLO1) | Neurite length (neurite outgrowth) ([1]; MGO 250 pM) | Soma size (cell bodies) ([1]; MGO 250 pM) | Motility (number of body bends in liquid media) (C. elegans) | Ca2+ flux (Rhod-3 AM fluorescence ratio 555/484 nm) (TRPA1 (worm)) |
| --- | --- | --- | --- | --- | --- | --- | --- |
| C[C@]1(C(=O)O)CCC[C@]2(C)c3cc(O)ccc3CC[C@@H]12 [PA, podocarpic acid] | ameliorate these MGO-induced neurotoxic phenotypes |  |  |  |  |  |  |
| CC(=O)C=O [MGO, methylglyoxal] |  | induce a similar Ca^2+ flux | trpa-1- and skn-1 -dependent increase in expression | significant retraction of neurite outgrowths | shrinkage in cell bodies | lower motility | induce a similar Ca^2+ flux |
